Data: patent publication EP0305968A2, “Compositions against protozoal diseases” (YEDA RESEARCH AND DEVELOPMENT COMPANY LIMITED, priority 1987, dated 1989)
In brackets after ≈: the same amount, converted by molar mass.

Tested on: Entamoeba histolytica
Assay: Killing of Entamoeba histolytica trophozoites in culture, with particle ingestion
Type: cell-based
Conditions: drug alone
Text: The particles were diol subsituted silica or aluminum- silicate particles Fig. 1), in which aldehyde groups can be formed by pretreatment with periodate that oxidizes vicinal hydroxyl groups and yields aldehyde groups. […] Schiff base was then interacted with sodium bisulfite to stabilize the bond (Fig. 2). […] One mg of dry weight silica particles contains 10⁷-10⁹ particles depending on the source.

Cc1ncc([N+](=O)[O-])n1CCO [Metronidazole] was tested, and the EC95 (Entamoeba histolytica, over 24 h, read-out: concentration required to kill more than 95% of the trophozoites) was 1 to 5 µg/mL (≈ 5.84 to 29.2 µM) and the “time required to kill more than 95% of the trophozoites” value (1-5 µg/ml) was “over 24 h”.
